In one test the test system is phospho-IRF3 Ser 386. The test can be described thus: Cell test: dose response inhibition of phospho-IRF3 Ser 386 in MDA-MB-468 cells. It counts as cell-based. The note with it: Homo sapiens, Poly(I:C) stimulation, read-out: IC50 of reference inhibitor in phospho-IRF3 cell assay. The source says:
Cell Test Dose Response Inhibition of Phospho-IRF3 […] cell/MDAMB468/INH/PHOS/IMAG/pIRF3 1. Scope Although TBK1 and IKKε are best known as key players in the innate immune response, recent findings have pointed towards a role for TBK1 and IKKi in Ras-induced oncogenic transformation. TBK1 was identified as a RalB effector in the Ras-like (Ral)-guanine nucleotide exchange factor (GEF) pathway that is required for Ras-induced transformation. TBK1 directly activates IRF3 which, upon phosphorylation, homodimerizes and translocates to the nucleus where it activates processes involved with inflammation, immune regulation, cell survival and proliferation. This assay has been devised in order to assess the efficacy/potency of TBK1/IKKε inhibitor compounds based on the immunocytochemical detection of nuclear localised phospho-IRF3, a target directly downstream of TBK1. […] 2. Assay Overview Day 1: MDA-MB-468 cells are detached with HyQ-Tase, counted, and seeded into a 384-well clear bottom TC-surface plate at density of 10,000 cells per well in a total volume of 35 ul complete medium. Alternatively cells are directly seeded from frozen vials. […] Day 3: The primary antibody is washed off, an AlexaFluor488-conjugated secondary is added, cells are counterstained with propidium iodide followed by image acquisition on IMX Ultra high content reader. […]

Test [1] has as its target TANK binding kinase (TBK1) (Homo sapiens (Human), UniProt Q9UHD2). Nature of the test: TBK1 enzyme assay (384-well Flashplate kinase assay). It counts as biochemical. The note with it: 10 μM ATP, 120 Min at 30° C. The procedure: Test for the Inhibition of TBK1
The kinase assay is performed as 384-well Flashplate assay (for e.g. Topcount measurement. 0.6 nM TANK binding kinase (TBK1), 800 nM biotinylated MELK-derived peptide (Biotin-Ah-Ah-[…]) SEQ ID NO: 2 and 10 μM ATP (spiked with 0.25 μCi ^33P-ATP/well) are incubated in a total volume of 50 μl (10 mM MOPS, 10 mM Mg-acetat, 0.1 mM EGTA, 1 mM DTT, 0.02% Brij35, 0.1% BSA, pH 7.5) with or without test compound for 120 Min at 30° C. The reaction is stopped with 25 μl 200 mM EDTA. After 30 Min at room temperature the liquid is removed and each well washed thrice with 100 μl 0.9% sodium chloride solution. Nonspecific reaction is determined in presence of 100 nM Staurosporine. Radioactivity is measured in a Topcount (PerkinElmer). Results (e.g. IC50-values) are calculated with program tools provided by the IT-department (e.g. AssayExplorer, Symyx).

A further test addresses IKKε (Homo sapiens (Human), UniProt Q14164). Nature of the test: IKKε kinase assay (384-well Flashplate). It counts as biochemical. The note with it: 10 μM ATP, 2 hours at 30° C.; read-out: IKKε enzyme assay IC50. The procedure: Test for the Inhibition of IKKε
IKKε—Kinase Assay (IKKepsilon)
The kinase assay is performed either as 384-well Flashplate assay (for e.g. Topcount measurement). […] The reaction is stopped with 25 μl 200 mM EDTA. After 30 Min at room temperature the liquid is removed and each well washed thrice with 100 μl 0.9% sodium chloride solution. […] Radioactivity is measured with Topcount (PerkinElmer). Results (e.g. IC50-values) are calculated with program tools provided by the IT-department (e.g. AssayExplorer, Symyx).

This passage reports IC50 results from US9249114B2, “Thiazole derivatives” (Merck Patent GmbH, priority 2011, dated 2016).

A word on the IC50: it is the concentration needed to halve the response being measured.

TANK binding kinase (TBK1), sequence (Q9UHD2 whole entry): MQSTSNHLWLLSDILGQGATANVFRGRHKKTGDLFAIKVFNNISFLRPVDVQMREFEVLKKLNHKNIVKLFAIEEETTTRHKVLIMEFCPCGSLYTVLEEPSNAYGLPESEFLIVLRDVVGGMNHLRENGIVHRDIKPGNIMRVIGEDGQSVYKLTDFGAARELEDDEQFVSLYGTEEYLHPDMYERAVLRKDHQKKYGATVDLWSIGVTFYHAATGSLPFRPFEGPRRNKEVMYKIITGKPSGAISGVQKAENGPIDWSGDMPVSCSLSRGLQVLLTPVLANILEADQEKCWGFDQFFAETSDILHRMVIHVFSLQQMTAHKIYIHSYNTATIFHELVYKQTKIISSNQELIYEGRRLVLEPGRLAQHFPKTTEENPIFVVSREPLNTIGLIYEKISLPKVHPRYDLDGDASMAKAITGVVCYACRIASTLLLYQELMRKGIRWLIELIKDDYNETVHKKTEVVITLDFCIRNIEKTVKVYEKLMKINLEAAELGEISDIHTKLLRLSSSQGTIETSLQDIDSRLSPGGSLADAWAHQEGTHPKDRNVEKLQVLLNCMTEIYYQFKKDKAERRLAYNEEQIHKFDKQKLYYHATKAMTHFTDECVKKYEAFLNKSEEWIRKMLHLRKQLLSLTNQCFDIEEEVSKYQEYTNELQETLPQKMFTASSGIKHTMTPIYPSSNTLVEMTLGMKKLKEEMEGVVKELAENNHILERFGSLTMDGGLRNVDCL
IKKε, sequence (Q14164 whole entry): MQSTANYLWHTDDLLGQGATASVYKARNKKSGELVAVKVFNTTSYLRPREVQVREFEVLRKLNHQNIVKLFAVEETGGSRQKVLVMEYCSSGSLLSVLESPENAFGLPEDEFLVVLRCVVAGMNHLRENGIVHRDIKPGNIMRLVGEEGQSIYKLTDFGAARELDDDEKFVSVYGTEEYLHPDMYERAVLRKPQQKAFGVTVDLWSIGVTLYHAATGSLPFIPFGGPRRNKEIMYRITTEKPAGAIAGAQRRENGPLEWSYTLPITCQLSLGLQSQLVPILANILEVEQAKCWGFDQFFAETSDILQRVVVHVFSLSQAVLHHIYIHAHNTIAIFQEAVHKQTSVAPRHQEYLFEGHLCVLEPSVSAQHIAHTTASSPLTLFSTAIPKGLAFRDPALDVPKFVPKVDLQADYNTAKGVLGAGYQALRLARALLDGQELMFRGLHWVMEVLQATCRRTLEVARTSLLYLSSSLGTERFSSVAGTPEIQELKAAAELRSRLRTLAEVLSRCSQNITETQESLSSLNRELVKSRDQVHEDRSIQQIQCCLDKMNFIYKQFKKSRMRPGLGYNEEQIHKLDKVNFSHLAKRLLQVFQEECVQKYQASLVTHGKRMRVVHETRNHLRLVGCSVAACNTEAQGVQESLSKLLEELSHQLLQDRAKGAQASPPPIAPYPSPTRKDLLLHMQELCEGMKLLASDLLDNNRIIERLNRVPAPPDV

For `O=C(NCCCNc1nc(Nc2cccc(NC(=O)N3CCCC3)c2)ncc1I)c1cccs1` [BX-795], the half-inhibitory concentration (IC50) in the test on phospho-IRF3 Ser 386 fell in the range of 0.2 to 0.8 µM. As for `CN1CCN(Cc2ccc(C(=O)Nc3sc(-c4ccncc4Cl)nc3C(N)=O)cc2)CC1` [Compound A20, 2-(3-chloro-pyridin-4-yl)-5-[4-(4-methyl-piperazin-1-ylmethyl)-benzoylamino]-thiazole-4-carboxylic acid amide], the IC50 in test [1] was 0.64 µM; at IKKε, 0.63 µM.

With `COc1cnccc1-c1nc(C(N)=O)c(NC(=O)c2ccc(CN3CCN(C)CC3)cc2)s1` [Compound A21, 2-(3-methoxy-pyridin-4-yl)-5-[4-(4-methyl-piperazin-1-ylmethyl)-benzoylamino]-thiazole-4-carboxylic acid amide], the IC50 amounted to 0.046 µM in test [1] and 0.014 µM at IKKε.

Consider `Cc1cnccc1-c1nc(C(N)=O)c(NC(=O)c2ccc(CN3CCN(C)CC3)cc2)s1` [Compound A22, 2-(3-methyl-pyridin-4-yl)-5-[4-(4-methyl-piperazin-1-ylmethyl)-benzoylamino]-thiazole-4-carboxylic acid amide], for which the half-inhibitory concentration (IC50) in test [1] is 0.35 µM; on IKKε, 0.3 µM. For `NC(=O)c1nc(-c2ccncc2)sc1NC(=O)c1ccc(CN2CCNCC2)cc1` [Compound A24, 5-(4-piperazin-1-ylmethyl-benzoylamino)-2-pyridin-4-yl-thiazole-4-carboxylic acid amide], in that order: 0.095 µM and 0.26 µM. For `CN1CCC(Cc2ccc(C(=O)Nc3sc(-c4ccncc4)nc3C(N)=O)cc2)CC1` [Compound A26, 5-[4-(1-methyl-piperidin-4-ylmethyl)-benzoylamino]-2-pyridin-4-yl-thiazole-4-carboxylic acid amide], in that order: 0.1 µM and 0.031 µM. In the same order, the values of `CC(=O)N1CCN(Cc2ccc(C(=O)Nc3sc(-c4ccncc4)nc3C(N)=O)cc2)CC1` [Compound A27, 5-[4-(4-acetyl-piperazin-1-ylmethyl)-benzoylamino]-2-pyridin-4-yl-thiazole-4-carboxylic acid amide] are 0.14 µM and 0.1 µM. Take `CN1CCN(Cc2ccc(C(=O)Nc3sc(-c4ccncc4)nc3C(N)=O)cc2)CC1` [Compound A37, 5-[4-(4-methyl-piperazin-1-ylmethyl)-benzoylamino]-2-pyridin-4-yl-thiazole-4-carboxylic acid amide]: the 50% inhibitory concentration (IC50) was determined as 0.71 µM in test [1] and 0.2 µM on IKKε. For `CN(C)Cc1ccc(C(=O)Nc2sc(-c3ccncc3)nc2C(N)=O)cc1` [Compound A40, 5-(4-dimethylaminomethyl-benzoylamino)-2-pyridin-4-yl-thiazole-4-carboxylic acid amide], in that order: 1.25 µM and 0.28 µM. For `NC(=O)c1nc(-c2ccncc2)sc1NC(=O)c1cn[nH]c1` [Compound A42, 5-[(1H-pyrazole-4-carbonyl)-amino]-2-pyridin-4-yl-thiazole-4-carboxylic acid amide], in that order: 2.7 µM and 0.73 µM. In the same order, the values of `NC(=O)c1nc(-c2ccncc2)sc1NC(=O)c1ccc(N2CCOCC2)nc1` [Compound A43, N-(4-carbamoyl-2-pyridin-4-yl-thiazol-5-yl)-6-morpholin-4-yl-nicotinamide] are 7.3 µM and 2 µM. Turning to `Cc1ccc(C(=O)Nc2sc(-c3ccncc3)nc2C(N)=O)cc1` [Compound A55, 5-(4-methyl-benzoylamino)-2-pyridin-4-yl-thiazole-4-carboxylic acid amide], the results for the IC50 (in test [1]; at IKKε) were 10 µM and 5.3 µM, respectively. For `CN(C)c1ccc(C(=O)Nc2sc(-c3ccncc3)nc2C(N)=O)cc1` [Compound A57, 5-{[4-(dimethylamino)benzoyl]amino}-2-pyridin-4-yl-1,3-thiazole-4-carboxamide], in that order: 1.8 µM and 1.6 µM. On to `NC(=O)c1nc(-c2ccncc2)sc1NC(=O)c1ccc(N)cc1` [Compound A58, 5-[(4-aminobenzoyl)amino]-2-pyridin-4-yl-1,3-thiazole-4-carboxamide], for which the IC50 in test [1] came to 0.11 µM; on IKKε, 0.18 µM. For `Cn1cccc1C(=O)Nc1sc(-c2ccncc2)nc1C(N)=O` [Compound A59, 5-{[(1-methyl-1H-pyrrol-2-yl)carbonyl]amino}-2-pyridin-4-yl-1,3-thiazole-4-carboxamide], in that order: 0.4 µM and 1.2 µM. In the same order, the values of `NC(=O)c1nc(-c2ccncc2)sc1NC(=O)c1ccco1` [Compound A60, 5-(2-furoylamino)-2-pyridin-4-yl-1,3-thiazole-4-carboxamide] are 3.7 µM and 6.3 µM. As to `NC(=O)c1nc(-c2ccncc2)sc1NC(=O)c1ccc[nH]1` [Compound A61, 2-pyridin-4-yl-5-[(1H-pyrrol-2-ylcarbonyl)amino]-1,3-thiazole-4-carboxamide], the values for the IC50 (in test [1]; at IKKε) were 0.12 µM and 0.14 µM, respectively. For `NC(=O)c1nc(-c2ccncc2)sc1NC(=O)c1cc[nH]n1` [Compound A63, 5-[(1H-pyrazol-3-ylcarbonyl)amino]-2-pyridin-4-yl-1,3-thiazole-4-carboxamide], in that order: 2.7 µM and 7.3 µM.

As for `NC(=O)c1nc(-c2ccncc2)sc1NC(=O)c1ccsc1` [Compound A65, 2-pyridin-4-yl-5-[(3-thienylcarbonyl)amino]-1,3-thiazole-4-carboxamide], the IC50 in test [1] amounted to 0.2 µM; at IKKε, 0.48 µM.
